Each block holds one substance with its values, some of them ahead of it.
Key:
[1] = tested on: differentiated Caco-2 cell monolayers; test: Transepithelial transport and metabolism across differentiated Caco-2 cell monolayers; type: in vitro ADME, human; conditions: AP solutions of differentiated Caco-2 collected after 120 min; untargeted HPLC–Chip–MS/MS; × = detected
Description: For differentiation, Caco-2 cells were seeded on polycarbonate filters with a 12 mm diameter and 0.4 μm pore diameter (Transwell, Corning, Inc., Lowell, MA, U.S.A.) at a 3.5 × 10^5 cells/cm^2 density in complete medium supplemented with 10% FBS in both AP and BL compartments for 2 days to allow for the formation of a confluent cell monolayer. Starting from day 3 after seeding, cells were transferred to FBS-free medium in both compartments, supplemented with ITS [final concentration of 10 mg/L insulin (I), 5.5 mg/L transferrin (T), and 6.7 μg/L sodium selenite (S), GIBCO–Invitrogen, San Giuliano Milanese, Italy] only in the BL compartment, and allowed to differentiate for 18–21 days with regular medium changes 3 times weekly.[12]
The transepithelial electrical resistance (TEER) of differentiated Caco-2 cells was measured at 37 °C using the voltmeter apparatus Millicell (Millipore Co., Billerica, MA, U.S.A.), immediately before and at the end of the transport experiments. In addition, at the end of transport experiments, cells were incubated from the AP side with 1 mM phenol red in phosphate-buffered saline (PBS) containing Ca^2+ (0.9 mM) and Mg^2+ (0.5 mM) for 1 h at 37 °C, to monitor the paracellular permeability of the cell monolayer. The BL solutions were then collected, and NaOH (70 μL, 0.1 N) was added before reading the absorbance at 560 nm by a microplate reader Synergy H1 from Biotek (Winooski, VT, U.S.A.). Phenol red passage was quantified using a standard phenol red curve. Only filters showing TEER values and phenol red passages similar to untreated control cells were considered for peptide transport analysis.
Prior to experiments, the cell monolayer integrity and differentiation were checked by TEER measurement as described in detail above. Cells were then washed twice, and peptide transportation by intestinal cells was assayed. Transport experiments were performed in transport buffer solution (137 mM NaCl, 5.36 mM KCl, 1.26 mM CaCl2, 1.1 mM MgCl2, and 5.5 mM glucose) following conditions previously described.[13] To reproduce the pH conditions existing in vivo in the small intestinal mucosa, AP solutions were maintained at pH 6.0 (buffered with 10 mM morpholinoethanesulfonic acid) and BL solutions were maintained at pH 7.4 (buffered with 10 mM N-2-hydroxyethylpiperazine-N-4-[…]). Prior to transport experiments, cells were washed twice with 500 μL of PBS containing Ca^2+ and Mg^2+. Peptide transportation by mature Caco-2 cells was assayed by loading the AP compartment with P7 and/or LTFPG (500 μM) in the AP transport solution (500 μL) and the BL compartment with the BL transport solution (700 μL). The plates were incubated at 37 °C, and the BL solutions were collected at different time points (i.e., 15, 30, 60, 90, and 120 min) and replaced with fresh solutions prewarmed at 37 °C. All BL solutions together with the AP solutions collected at the end of the transport experiment were stored at −80 °C prior to analysis. Three independent transport experiments were performed, each in duplicate.
Quantitative analysis of P7 in the AP and BL samples were carried out by ion trap mass spectrometry (MS) in multiple reaction monitoring (MRM) mode, monitoring two of the most intense diagnostic transitions, after optimization of the acquisition parameters, such as retention time, MS profile, and tandem mass spectrometry (MS/MS) fragmentation spectrum.[14],[15] All further details regarding liquid chromatography–tandem mass spectrometry (LC–MS/MS) operating conditions and method validations are described in the Supporting Information.
The metabolic degradation products deriving from the hydrolytic activity of brush border membrane peptidases were investigated by an untargeted approach (for further details, see the Supporting Information). […]

[2] = tested on: ACE; conditions: cited from earlier work; for in vitro ACE inhibitory activity at 0.5 mg/mL: hempseed hydrolysate peptides
Description: (§1) Moreover, when orally administered to spontaneously hypertensive rats (SHRs) at a dose of 30 mg/kg of body weight, LTFPG produces a fast and efficient decrease in systolic blood pressure with a maximum of −37 mmHg after 2 h. […] In particular, these phenomena have been invocated to explain the discrepancy observed between in vitro assays and in vivo results. For example, there are many reports in the literature on the ACE inhibitory activity of different food-derived peptides.[32] In all of these studies, the biochemical characterization is carried out using tests on the purified recombinant ACE enzymes from lung ...

[3] = tested on: spontaneously hypertensive rats (SHRs); conditions: cited from earlier work
Description: as §1

detected at the AP side, P7 tested within a mixture [1]: ×
Substance: TFPGSAED [AP metabolite of P7 produced by Caco-2 cells, attributed to leucine aminopeptidase]

Substance: IPAGV
in vitro ACE inhibitory activity at 0.5 mg/mL [2]: 60.0%
reduction of the BP of SHR [3]: −40.0 mmHg

Substance: FKGRYYP [peptide from meat-derived hydrolysates obtained using thermolysin]
IC50 ([2]; peptides from meat-derived thermolysin hydrolysates, read-out: IC50, in vitro ACE activity): 550 nM
effect in vivo on SHRs [3]: totally ineffective

Substance: SVYT
in vitro ACE inhibitory activity at 0.5 mg/mL [2]: 79.0%

Source: article PMC7997369, “Assessment of the Multifunctional Behavior of Lupin Peptide P7 and Its Metabolite Using an Integrated Strategy” (Journal of Agricultural and Food Chemistry, 2020)
